Laboratory results from US11053204B2, “Pyrimidinyloxy benzene derivatives as herbicides” (FMC Corporation, priority 2015, dated 2021).

How the values were obtained:
Type in all cases: in vivo
[1] = system: galium (catchweed bedstraw, Galium aparine); assay: Test C preemergence, plant response rating
[2] = system: kochia (Kochia scoparia); assay: Test C preemergence, plant response rating
[3] = system: barnyardgrass (Echinochloa crus-galli); assay: Test C preemergence, plant response rating; details: Preemergence
[4] = system: johnsongrass (Sorghum halepense); assay: Test C preemergence, plant response rating
[5] = system: field violet (Viola arvensis); assay: Test C postemergence, plant response rating; details: for Plant response rating, Field Violet: scale 0 to 100; for Field Violet plant response rating: scale 0 to 100 (0 no effect, 100 complete control)
Method in brief: (§1)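 Preemergence: seeds sown in loam–sand blend or silt loam and sprayed with test chemicals in a non-phytotoxic surfactant-containing solvent. Postemergence: potted plants at 2–18 cm (1–4-leaf stage) sprayed with the same formulation. After 13–15 d in greenhouse, visual rating versus controls on 0 (no effect) to 100 (complete control) scale.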

[6] = system: surinam grass (Brachiaria decumbens); assay: Test C postemergence, plant response rating; details: for Plant response rating, Surinam Grass: scale 0 to 100; for Surinam Grass plant response rating: scale 0 to 100 (0 no effect, 100 complete control)
Method in brief: as §1

[7] = system: nightshade (eastern black nightshade, Solanum ptycanthum); assay: Test C postemergence, plant response rating; details: for Plant response rating, Nightshade: scale 0 to 100; for Nightshade plant response rating: scale 0 to 100 (0 no effect, 100 complete control)
Method in brief: as §1

[8] = system: pigweed, palmer (palmer pigweed, Amaranthus palmeri); assay: Test C postemergence, plant response rating; details: for Plant response rating, Pigweed, Palmer: scale 0 to 100; for Pigweed, Palmer plant response rating: scale 0 to 100 (0 no effect, 100 complete control)
Method in brief: as §1

[9] = system: speedwell (bird's-eye speedwell, Veronica persica); assay: Test C postemergence, plant response rating; details: for Plant response rating, Speedwell: scale 0 to 100; for Speedwell plant response rating: scale 0 to 100 (0 no effect, 100 complete control)
Method in brief: as §1

[10] = system: buckwheat, wild (wild buckwheat, Polygonum convolvulus); assay: Test C postemergence, plant response rating; details: for Plant response rating, Buckwheat, Wild: scale 0 to 100; for Buckwheat, Wild plant response rating: scale 0 to 100 (0 no effect, 100 complete control)
Method in brief: as §1

[11] = system: windgrass (Apera spica-venti); assay: Test C postemergence, plant response rating; details: for Plant response rating, Windgrass: scale 0 to 100; for Windgrass plant response rating: scale 0 to 100 (0 no effect, 100 complete control)
Method in brief: as §1

[12] = system: Canada thistle (Cirsium arvense); assay: Test C postemergence, plant response rating; details: for Plant response rating, Canada Thistle: scale 0 to 100; for Canada Thistle plant response rating: scale 0 to 100 (0 no effect, 100 complete control)
Method in brief: as §1

[13] = system: field poppy (Papaver rhoeas); assay: Test C postemergence, plant response rating; details: for Plant response rating, Field Poppy: scale 0 to 100; for Field Poppy plant response rating: scale 0 to 100 (0 no effect, 100 complete control)
Method in brief: as §1

[14] = system: johnsongrass (Sorghum halepense); assay: Test C postemergence, plant response rating; details: for Plant response rating, Johnsongrass: scale 0 to 100; for Johnsongrass plant response rating: scale 0 to 100 (0 no effect, 100 complete control)
Method in brief: as §1

[15] = system: geranium, cutleaf (cutleaf geranium, Geranium dissectum); assay: Test C postemergence, plant response rating; details: for Plant response rating, Geranium, Cutleaf: scale 0 to 100; for Geranium, Cutleaf plant response rating: scale 0 to 100 (0 no effect, 100 complete control)
Method in brief: as §1

[16] = system: wild poinsettia (Euphorbia heterophylla); assay: Test C postemergence, plant response rating; details: for Plant response rating, Poinsettia, Wild: scale 0 to 100; for Poinsettia, Wild plant response rating: scale 0 to 100 (0 no effect, 100 complete control)
Method in brief: as §1

[17] = system: nightshade (eastern black nightshade, Solanum ptycanthum); assay: Test C preemergence, plant response rating

Compound: CCCC(=O)c1c(Br)cccc1Oc1ncc(Cl)cn1 [Compound 75]
- Plant response rating, Galium ([1]; 16 g ai/ha, scale 0 to 100): 0
- Plant response rating, Galium ([1]; 31 g ai/ha, scale 0 to 100): 0
- Plant response rating, Galium ([1]; 62 g ai/ha, scale of 0 to 100): 5
- Plant response rating, Galium ([1]; 125 g ai/ha, scale of 0 to 100): 0
- Plant response rating, Kochia ([2]; 16 g ai/ha, scale 0 to 100): 0
- Plant response rating, Kochia ([2]; 31 g ai/ha, scale 0 to 100): 50
- Plant response rating, Kochia ([2]; 62 g ai/ha, scale 0 to 100): 90
- Plant response rating, Kochia ([2]; 125 g ai/ha, scale of 0 to 100): 100
- Plant response rating, Barnyardgrass ([3]; 62 g ai/ha, scale of 0 to 100): 80
- Plant response rating, Barnyardgrass ([3]; 125 g ai/ha, scale of 0 to 100): 100
- Plant response rating, Barnyardgrass ([3]; 16 g ai/ha, scale 0 to 100): 5
- Plant response rating, Barnyardgrass ([3]; 31 g ai/ha, scale 0 to 100): 60
- Plant response rating, Johnsongrass ([4]; 16 g ai/ha, scale 0 to 100): 0
- Plant response rating, Johnsongrass ([4]; 31 g ai/ha, scale 0 to 100): 0
- Plant response rating, Johnsongrass ([4]; 62 g ai/ha, scale 0 to 100): 30
- Plant response rating, Johnsongrass ([4]; 125 g ai/ha, scale of 0 to 100): 70
- Plant response rating, Field Violet ([5]; 16 g ai/ha): 80
- Plant response rating, Field Violet ([5]; 31 g ai/ha): 98
- Field Violet plant response rating ([5]; 62 g ai/ha): 98
- Field Violet plant response rating ([5]; 125 g ai/ha): 100
- Plant response rating, Surinam Grass ([6]; 16 g ai/ha): 10
- Plant response rating, Surinam Grass ([6]; 31 g ai/ha): 15
- Surinam Grass plant response rating ([6]; 62 g ai/ha): 20
- Surinam Grass plant response rating ([6]; 125 g ai/ha): 20
- Plant response rating, Nightshade ([7]; 16 g ai/ha): 75
- Plant response rating, Nightshade ([7]; 31 g ai/ha): 80
- Nightshade plant response rating ([7]; 62 g ai/ha): 85
- Nightshade plant response rating ([7]; 125 g ai/ha): 98
- Plant response rating, Pigweed, Palmer ([8]; 16 g ai/ha): 75
- Plant response rating, Pigweed, Palmer ([8]; 31 g ai/ha): 90
- Pigweed, Palmer plant response rating ([8]; 62 g ai/ha): 95
- Pigweed, Palmer plant response rating ([8]; 125 g ai/ha): 85
- Plant response rating, Speedwell ([9]; 16 g ai/ha): 90
- Plant response rating, Speedwell ([9]; 31 g ai/ha): 95
- Speedwell plant response rating ([9]; 62 g ai/ha): 100
- Speedwell plant response rating ([9]; 125 g ai/ha): 100
- Plant response rating, Buckwheat, Wild ([10]; 16 g ai/ha): 45
- Plant response rating, Buckwheat, Wild ([10]; 31 g ai/ha): 60
- Buckwheat, Wild plant response rating ([10]; 62 g ai/ha): 80
- Buckwheat, Wild plant response rating ([10]; 125 g ai/ha): 85
- Plant response rating, Windgrass ([11]; 16 g ai/ha): 0
- Plant response rating, Windgrass ([11]; 31 g ai/ha): 5
- Windgrass plant response rating ([11]; 62 g ai/ha): 10
- Windgrass plant response rating ([11]; 125 g ai/ha): 5
- Plant response rating, Canada Thistle ([12]; 16 g ai/ha): 70
- Plant response rating, Canada Thistle ([12]; 31 g ai/ha): 75
- Canada Thistle plant response rating ([12]; 62 g ai/ha): 75
- Canada Thistle plant response rating ([12]; 125 g ai/ha): 100
- Plant response rating, Field Poppy ([13]; 16 g ai/ha): 70
- Plant response rating, Field Poppy ([13]; 31 g ai/ha): 80
- Field Poppy plant response rating ([13]; 62 g ai/ha): 80
- Field Poppy plant response rating ([13]; 125 g ai/ha): 100
- Plant response rating, Johnsongrass ([14]; 16 g ai/ha): 5
- Plant response rating, Johnsongrass ([14]; 31 g ai/ha): 10
- Johnsongrass plant response rating ([14]; 62 g ai/ha): 10
- Johnsongrass plant response rating ([14]; 125 g ai/ha): 70
- Plant response rating, Geranium, Cutleaf ([15]; 16 g ai/ha): 30
- Plant response rating, Geranium, Cutleaf ([15]; 31 g ai/ha): 40
- Geranium, Cutleaf plant response rating ([15]; 62 g ai/ha): 35
- Geranium, Cutleaf plant response rating ([15]; 125 g ai/ha): 65
- Plant response rating, Poinsettia, Wild ([16]; 16 g ai/ha): 65
- Plant response rating, Poinsettia, Wild ([16]; 31 g ai/ha): 70
- Poinsettia, Wild plant response rating ([16]; 62 g ai/ha): 80
- Poinsettia, Wild plant response rating ([16]; 125 g ai/ha): 80
- Plant response rating, Nightshade ([17]; 16 g ai/ha, scale 0 to 100): 40
- Plant response rating, Nightshade ([17]; 31 g ai/ha, scale 0 to 100): 75
- Plant response rating, Nightshade ([17]; 62 g ai/ha, scale 0 to 100): 75
- Plant response rating, Nightshade ([17]; 125 g ai/ha, scale of 0 to 100): 80
